For assay [1], the system named is B16 melanoma cells in C57BL/6 mice. Nature of the assay: Experimental lung metastasis of B16 melanoma cells. The assay is classed as in vivo. The conditions noted are these: NUP 20 mg/kg or cisplatin 4 mg/kg, day 0 to day 14, lungs excised day 18. As for the experimental part: C57BL/6 mice were treated with an intravenous injection of B16 melanoma cells (3*10^5 cells/[…]). […] Control animals received only vehicle. Lungs were excised on day 18. Metastatic nodules are black (FIG. 11).

Another assay relates to L428 cells. Nature of the assay: XTT cell survival, NUP combined with chemotherapeutic drugs. The assay is classed as cell-based, human. The conditions noted are these: Bortezomib 0.9 ng/ml, same conditions, data not shown.

From patent publication US8945632B2, “Methods and compositions for inhibiting the nuclear factor κB pathway” (Ben Gurion University of the Negev R&D Authority, priority 2010, dated 2015) come the findings set out here.

Procedure for L428 cells: Cell survival was measured by a tetrazolium-formazan XTT assay kit (Beit Haemek) in 96-well plates. […] XTT solution (25 μl) was added, and the plates were again incubated for 4 h at 37° C. Absorbance was read at 450 nm by an ELISA reader.

Take `N.N.[Cl][Pt][Cl]` [cisplatin]: the “Number of lung metastatic nodules, single agent” value in assay [1] is reported as “reduced the number of lung metastatic nodules”.
`CC(C)C[C@H](NC(=O)[C@H](Cc1ccccc1)NC(=O)c1cnccn1)B(O)O` [Bortezomib]: the “Combined effect on cell survival with NUP” value in the assay on L428 cells is “additive to NUP and not synergistic”.
